Data published in ChEMBL document CHEMBL1151907, “Cyclic glycopeptidomimetics through a versatile sugar-based scaffold” (Bioorg Med Chem Lett, 2009).
The source made the active and inactive calls. No cut-off for these calls is given here.

Tests used:
[1] = biological target: Integrin alpha-4/beta-1 (Homo sapiens) (UniProt P05556+P13612); test: Inhibition of integrin alpha-4-beta-1-mediated U937 and Jurkat cell adhesion to VCAM-1 coated surface up to 100 uM by BCECF fluorescence measurement; assay type: cell-based
[2] = biological target: T1, Substance-K receptor (Homo sapiens) (UniProt P21452); test: Displacement of [125I]neurokinin A from human tachykinin NK2 receptor expressed in CHO cell at 10 uM; assay type: cell-based
T1 sequence (whole entry): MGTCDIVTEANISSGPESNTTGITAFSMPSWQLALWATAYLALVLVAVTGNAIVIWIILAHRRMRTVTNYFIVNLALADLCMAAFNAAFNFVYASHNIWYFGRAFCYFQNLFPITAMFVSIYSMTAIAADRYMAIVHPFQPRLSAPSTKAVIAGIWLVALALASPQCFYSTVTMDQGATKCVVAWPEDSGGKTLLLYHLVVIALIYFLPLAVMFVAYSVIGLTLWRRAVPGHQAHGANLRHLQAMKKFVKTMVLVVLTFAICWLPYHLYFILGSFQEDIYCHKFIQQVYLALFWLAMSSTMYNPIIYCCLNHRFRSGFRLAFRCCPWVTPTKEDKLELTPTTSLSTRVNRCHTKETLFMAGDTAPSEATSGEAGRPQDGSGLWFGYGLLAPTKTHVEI

inhibition [1]	inhibition [2] [%]	SMILES
inactive	–	CC[C@H](C)[C@@H]1NC(=O)[C@H](CCC(=O)O)NC(=O)[C@H]2O[C@@H]3OC(=C(C(=O)OC)S[C@@H]3[C@@H](O)[C@@H]2O)C[C@@H](C(=O)O)NC(=O)[C@H](C(C)C)NC(=O)[C@H](CC(=O)O)NC(=O)[C@H](CC(C)C)NC1=O
–	25	COC(=O)C1=C2C[C@@H](C(=O)OCc3ccccc3)NC(=O)[C@H](C)NC(=O)[C@H](Cc3ccccc3)NC(=O)[C@H](Cc3ccccc3)NC(=O)[C@H](Cc3ccccc3)NC(=O)[C@H](C)NC(=O)[C@H]3O[C@H](O2)[C@H](S1)[C@@H](O)[C@@H]3O
